SMILES strings stand for the structures.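 Five concentrations, 48 hours, 96-well plates. Definition used: TGI = concentration required for complete inhibition of growth.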

The subject of the first assay is KM12 colon. The assay can be described thus: DTP human tumour cell line panel, 48 h.
A word on the TGI: it is the concentration giving total growth inhibition. A higher TGI goes with less potent growth arrest. `O=c1[nH]c2cc([N+](=O)[O-])ccc2nc1/C(=N\Nc1ccccc1)C(O)c1ccc2c(c1)OCO2` (stereo not drawn) yielded a TGI greater than 100 µM.
On to `Cc1cccc(N(CC(=O)O)S(=O)(=O)c2ccccc2)c1`, for which the TGI was greater than 100 µM.

A further assay has as its system NCI-H460 lung. The assay can be described thus: DTP human tumour cell line panel, 48 h.
Compound `O=C1C2=C(CCC2)Nc2cccc3ncn1c23` came in with a TGI greater than 100 µM.
As to `N#Cc1c(-c2ccco2)cc(-c2ccccc2)[nH]c1=O`, the TGI was greater than 100 µM.
Consider `O=c1[nH]c2cc([N+](=O)[O-])ccc2nc1/C(=N\Nc1ccccc1)C(O)c1ccc2c(c1)OCO2` (stereo not drawn), for which the TGI is greater than 100 µM.
Compound `Cc1cccc(N(CC(=O)O)S(=O)(=O)c2ccccc2)c1` came in with a TGI greater than 100 µM.

For another assay, the system named is M14 melanoma. The assay can be described thus: DTP human tumour cell line panel, 48 h.
`N#Cc1c(-c2ccco2)cc(-c2ccccc2)[nH]c1=O` had a TGI greater than 100 µM.
The same measure, in the same setting: the figure for `O=c1[nH]c2cc([N+](=O)[O-])ccc2nc1/C(=N\Nc1ccccc1)C(O)c1ccc2c(c1)OCO2` (stereo not drawn) is greater than 100 µM; for `Cc1cccc(N(CC(=O)O)S(=O)(=O)c2ccccc2)c1` it is greater than 100 µM.

The next assay relates to SNB-75 CNS. Kind of assay: DTP human tumour cell line panel, 48 h.
`N#Cc1c(-c2ccco2)cc(-c2ccccc2)[nH]c1=O` displayed a TGI greater than 100 µM.
The compound `O=c1[nH]c2cc([N+](=O)[O-])ccc2nc1/C(=N\Nc1ccccc1)C(O)c1ccc2c(c1)OCO2` (stereo not drawn) gave a TGI greater than 100 µM.
On the same count and under the same terms, the figure for `Cc1cccc(N(CC(=O)O)S(=O)(=O)c2ccccc2)c1` is greater than 100 µM.

In the next assay the test system is A498 renal. The assay can be described thus: DTP human tumour cell line panel, 48 h.
As for `N#Cc1c(-c2ccco2)cc(-c2ccccc2)[nH]c1=O`, the TGI is greater than 100 µM.
For `Cc1cccc(N(CC(=O)O)S(=O)(=O)c2ccccc2)c1`, the TGI was greater than 100 µM.

A further assay concerns ACHN renal. The assay can be described thus: DTP human tumour cell line panel, 48 h.
Compound `O=C1C2=C(CCC2)Nc2cccc3ncn1c23` gave a TGI greater than 100 µM.
Take `N#Cc1c(-c2ccco2)cc(-c2ccccc2)[nH]c1=O`: the TGI was greater than 100 µM.
As to `O=c1[nH]c2cc([N+](=O)[O-])ccc2nc1/C(=N\Nc1ccccc1)C(O)c1ccc2c(c1)OCO2` (stereo not drawn), the TGI was greater than 100 µM.
Compound `Cc1cccc(N(CC(=O)O)S(=O)(=O)c2ccccc2)c1` had a TGI greater than 100 µM.

The next assay deals with COLO 205 colon. The assay can be described thus: DTP human tumour cell line panel, 48 h.
`O=C1C2=C(CCC2)Nc2cccc3ncn1c23` registered a TGI greater than 100 µM.
For `N#Cc1c(-c2ccco2)cc(-c2ccccc2)[nH]c1=O`, the TGI was greater than 100 µM.
`O=c1[nH]c2cc([N+](=O)[O-])ccc2nc1/C(=N\Nc1ccccc1)C(O)c1ccc2c(c1)OCO2` (stereo not drawn) registered a TGI greater than 100 µM.
Still for that read-out and setting: the same measure for `Cc1cccc(N(CC(=O)O)S(=O)(=O)c2ccccc2)c1`: greater than 100 µM.

The next assay relates to RXF 393 renal. The assay can be described thus: DTP human tumour cell line panel, 48 h.
On to `O=C1C2=C(CCC2)Nc2cccc3ncn1c23`, for which the TGI is greater than 100 µM.
The compound `N#Cc1c(-c2ccco2)cc(-c2ccccc2)[nH]c1=O` came in with a TGI greater than 100 µM.
Still for that read-out and setting: the figure for `O=c1[nH]c2cc([N+](=O)[O-])ccc2nc1/C(=N\Nc1ccccc1)C(O)c1ccc2c(c1)OCO2` (stereo not drawn) is greater than 100 µM; for `Cc1cccc(N(CC(=O)O)S(=O)(=O)c2ccccc2)c1` it is greater than 100 µM.

Another assay deals with HCT-15 colon. Kind of assay: DTP human tumour cell line panel, 48 h.
Regarding `O=C1C2=C(CCC2)Nc2cccc3ncn1c23`, the TGI is greater than 100 µM.
The same measure, in the same setting: the figure for `N#Cc1c(-c2ccco2)cc(-c2ccccc2)[nH]c1=O` is greater than 100 µM; for `O=c1[nH]c2cc([N+](=O)[O-])ccc2nc1/C(=N\Nc1ccccc1)C(O)c1ccc2c(c1)OCO2` (stereo not drawn) it is 58.2 µM.
Compound `Cc1cccc(N(CC(=O)O)S(=O)(=O)c2ccccc2)c1` registered a TGI greater than 100 µM.

For the next assay, the system named is OVCAR-4 ovarian. The assay can be described thus: DTP human tumour cell line panel, 48 h.
Consider `N#Cc1c(-c2ccco2)cc(-c2ccccc2)[nH]c1=O`, for which the TGI is greater than 100 µM.
Same read-out and setting: the figure for `O=c1[nH]c2cc([N+](=O)[O-])ccc2nc1/C(=N\Nc1ccccc1)C(O)c1ccc2c(c1)OCO2` (stereo not drawn) is greater than 100 µM; for `Cc1cccc(N(CC(=O)O)S(=O)(=O)c2ccccc2)c1` it is greater than 100 µM.

Another assay has as its system DMS 114 small cell lung. Kind of assay: DTP human tumour cell line panel, 48 h.
In turn, `O=C1C2=C(CCC2)Nc2cccc3ncn1c23` came in with a TGI greater than 100 µM.
In the case of `O=c1[nH]c2cc([N+](=O)[O-])ccc2nc1/C(=N\Nc1ccccc1)C(O)c1ccc2c(c1)OCO2` (stereo not drawn), the TGI is greater than 100 µM.

In the next assay the test system is HOP-62 NSCLC. The assay can be described thus: DTP human tumour cell line panel, 48 h.
The compound `N#Cc1c(-c2ccco2)cc(-c2ccccc2)[nH]c1=O` showed a TGI greater than 100 µM.
Compound `O=c1[nH]c2cc([N+](=O)[O-])ccc2nc1/C(=N\Nc1ccccc1)C(O)c1ccc2c(c1)OCO2` (stereo not drawn) returned a TGI greater than 100 µM.

The subject of a further assay is SR leukemia. The assay can be described thus: DTP human tumour cell line panel, 48 h.
For the compound `O=C1C2=C(CCC2)Nc2cccc3ncn1c23`, the TGI was greater than 100 µM.
Same read-out and setting: the figure for `N#Cc1c(-c2ccco2)cc(-c2ccccc2)[nH]c1=O` is greater than 100 µM; for `O=c1[nH]c2cc([N+](=O)[O-])ccc2nc1/C(=N\Nc1ccccc1)C(O)c1ccc2c(c1)OCO2` (stereo not drawn) it is greater than 100 µM.

The next assay deals with SK-MEL-2 melanoma. The assay can be described thus: DTP human tumour cell line panel, 48 h.
Consider `O=C1C2=C(CCC2)Nc2cccc3ncn1c23`, for which the TGI was greater than 100 µM.
The compound `O=c1[nH]c2cc([N+](=O)[O-])ccc2nc1/C(=N\Nc1ccccc1)C(O)c1ccc2c(c1)OCO2` (stereo not drawn) showed a TGI greater than 100 µM.
Compound `Cc1cccc(N(CC(=O)O)S(=O)(=O)c2ccccc2)c1` came in with a TGI greater than 100 µM.

The subject of another assay is OVCAR-8 ovarian. The assay can be described thus: DTP human tumour cell line panel, 48 h.
In turn, `O=C1C2=C(CCC2)Nc2cccc3ncn1c23` registered a TGI greater than 100 µM.
`N#Cc1c(-c2ccco2)cc(-c2ccccc2)[nH]c1=O` yielded a TGI greater than 100 µM.
On the same count and under the same terms, the same measure for `O=c1[nH]c2cc([N+](=O)[O-])ccc2nc1/C(=N\Nc1ccccc1)C(O)c1ccc2c(c1)OCO2` (stereo not drawn): greater than 100 µM.
On to `Cc1cccc(N(CC(=O)O)S(=O)(=O)c2ccccc2)c1`, for which the TGI is greater than 100 µM.

For a further assay, the system named is SNB-78 CNS. The assay can be described thus: DTP human tumour cell line panel, 48 h.
The compound `O=C1C2=C(CCC2)Nc2cccc3ncn1c23` returned a TGI greater than 100 µM.
Same read-out and setting: the same measure for `N#Cc1c(-c2ccco2)cc(-c2ccccc2)[nH]c1=O`: greater than 100 µM.
Consider `O=c1[nH]c2cc([N+](=O)[O-])ccc2nc1/C(=N\Nc1ccccc1)C(O)c1ccc2c(c1)OCO2` (stereo not drawn), for which the TGI was greater than 100 µM.

The subject of another assay is KM20L2 colon. The assay can be described thus: DTP human tumour cell line panel, 48 h.
`O=C1C2=C(CCC2)Nc2cccc3ncn1c23` returned a TGI greater than 100 µM.
Still for that read-out and setting: the figure for `N#Cc1c(-c2ccco2)cc(-c2ccccc2)[nH]c1=O` is greater than 100 µM; for `O=c1[nH]c2cc([N+](=O)[O-])ccc2nc1/C(=N\Nc1ccccc1)C(O)c1ccc2c(c1)OCO2` (stereo not drawn) it is greater than 100 µM.

These data come from PubChem BioAssay (NCI).
